Source: patent US20170348258A1, “3-Amino Benzamide Derivative Serving As B-Lactam Auxiliary Antibiotic, Preparation Method and Use Thereof” (THE HONG KONG POLYTECHNIC UNIVERSITY, priority 2014, published 2017)

Legend:
[1] = tested on: MRSA strain 2728; assay: FICI of F332 with antibiotics; type: cell-based, S. aureus
[2] = tested on: MRSA strain 1402; assay: FICI of F332 with antibiotics; type: cell-based, S. aureus
[3] = tested on: MRSA strain 254; assay: FICI of F332 with antibiotics; type: cell-based, S. aureus
[4] = tested on: MRSA strain #1749 (ATCC strain); assay: FICI of F332 with antibiotics; type: cell-based, S. aureus
[5] = tested on: MRSA strain 3589; assay: FICI of F332 with antibiotics; type: cell-based, S. aureus
[6] = tested on: MRSA strain 3332; assay: FICI of F332 with antibiotics; type: cell-based, S. aureus
[7] = tested on: MRSA strain 2516; assay: FICI of F332 with antibiotics; type: cell-based, S. aureus
[8] = tested on: MRSA strain 757; assay: FICI of F332 with antibiotics; type: cell-based, S. aureus
Procedure: The bacterial strains used in this study were clinically isolated MRSA strains USA300#757 and #2960 which were obtained from our laboratory. Determination of the Fractional Inhibitory Concentration Index (FICI) was adopted by the Müller-Hinton broth (MHB) dilution method as previously described. Twelve serial two-fold dilutions of PC190723, F332 and F361 were prepared in the 96-well microplate with concentration ranging from 512 to 0.25 μg/mL. […] Lastly, the compounds and the β-lactams were mixed at a 1:1 ratio and subjected to two-fold dilution as described previously. Each microplate well contained 100 μL of MHB supplemented with compounds alone, β-lactams alone or the mixture of compounds and β-lactams. Overnight cultures of S. aureus in the Müller-Hinton broth was diluted to OD595 of 0.08-0.1 in saline and added in each of the microplate well. The plates were incubated at 37° C. for 20 h. All tests were performed in duplicate and the inhibition of bacterial growth was determined by visualization. The FICI of compounds and β-lactams were calculated as followed: FICI=(MIC of combination of compound and β-lactam/MIC of compound alone)+(MIC of combination of compound and β-lactam/MIC of β-lactam alone).

[9] = tested on: MRSA strain 2901; assay: FICI of F332 with antibiotics; type: cell-based, S. aureus
[10] = tested on: MRSA strain 3580; assay: FICI of F332 with antibiotics; type: cell-based, S. aureus
[11] = tested on: MRSA strain 200; assay: FICI of F332 with antibiotics; type: cell-based, S. aureus
[12] = tested on: MRSA strain 1344; assay: FICI of F332 with antibiotics; type: cell-based, S. aureus
[13] = tested on: MRSA strain 2919; assay: FICI of F332 with antibiotics; type: cell-based, S. aureus
[14] = tested on: MRSA strain 2895; assay: FICI of F332 with antibiotics; type: cell-based, S. aureus
[15] = target: T1, B. subtilis FtsZ-eGFP fusion protein (Bacillus subtilis, UniProt P17865); assay: Fluorescence microscopy of FtsZ-eGFP localization; type: cell-based; settings: 3 μM F332, 4 hours
T1 construct: expressed in transfected cells; host or cells: B. subtilis 168 transformed with pFZ-FtsZ-eGFP
Procedure: The localization of the filamentation in B. subtilis that induced by F332 was performed by fluorescence microscopy using the cell division protein FtsZ identified by a green fluorescent protein. The expression plasmid of the FtsZ-eGFP fusion protein was constructed as follows (the structure of the plasmid was shown in FIG. 10a).
to amplify the eGFP gene fragment, with about 700 base pairs. Two fragments were ligated by overlap extension PCR method and then digested with endonucleases EcoRI and BamHI. They were ligated into the corresponding cleavage site of pFZ2.0 and transformed into E. coli BL21 (DE3) and screened on chloramphenicol plates to obtain the plasmid pFZ-FtsZ-eGFP. The plasmid extracted was transformed into B. subtilis 168 and grown in LB medium containing chloramphenicol. The expression of FtsZ-eGFP gene was observed by adding different concentrations of lactose or IPTG
The B. subtilis shown in FIGS. 10b and 10c was cultured in the absence of F332.
The B. subtilis shown in FIGS. 10d and 10e was cultured in the presence of F332. […] Thus, the expression of the protein was not only at the position where cell division was performed.

[16] = tested on: MRSA strain 417; assay: FICI of F332 with antibiotics; type: cell-based, S. aureus

With CCCCCCCCCNc1ccc(F)c(C(N)=O)c1F [Compound F332, 2,6-difluoro-3-(nonylamino)benzamide] the “FICI of F332 combined with Amoxicillin” value [1] was 0.08, the “FICI of F332 combined with Cefuroxime” value [1] was 0.14 and the “FICI of F332 combined with Cloxacillin” value [1] was 1.01. For the same compound, the “FICI of F332 combined with Meropenem” value [1] was 2.03, the “FICI of F332 combined with Meticillin” value [1] was 0.16 and the “FICI of F332 combined with Amoxicillin” value [2] was 1.02. The “FICI of F332 combined with Cefuroxime” value [2] was 0.63, the “FICI of F332 combined with Cloxacillin” value [2] was 0.75 and the “FICI of F332 combined with Meropenem” value [2] was 5.00. The “FICI of F332 combined with Meticillin” value [2] was 0.56, the “FICI of F332 combined with Amoxicillin” value [3] was 0.56 and the “FICI of F332 combined with Cefuroxime” value [3] was 0.25. For the same compound, the “FICI of F332 combined with Cloxacillin” value [3] was 0.19, the “FICI of F332 combined with Meropenem” value [3] was 1.50 and the “FICI of F332 combined with Meticillin” value [3] was 0.25. For the same compound, the “FICI of F332 combined with Amoxicillin” value [4] was 1.03, the “FICI of F332 combined with Cefuroxime” value [4] was 1.13 and the “FICI of F332 combined with Cloxacillin” value [4] was 1.25. For the same compound, the “FICI of F332 combined with Meropenem” value [4] was 10.0, the “FICI of F332 combined with Meticillin” value [4] was 1.06 and the “FICI of F332 combined with Amoxicillin” value [5] was 1.06. For the same compound, the “FICI of F332 combined with Cefuroxime” value [5] was 0.25, the “FICI of F332 combined with Cloxacillin” value [5] was 0.31 and the “FICI of F332 combined with Meropenem” value [5] was 1.50. The “FICI of F332 combined with Meticillin” value [5] was 0.52, the “FICI of F332 combined with Amoxicillin” value [6] was 0.63 and the “FICI of F332 combined with Cefuroxime” value [6] was 0.13. For the same compound, the “FICI of F332 combined with Cloxacillin” value [6] was 0.38, the “FICI of F332 combined with Meropenem” value [6] was 2.25 and the “FICI of F332 combined with Meticillin” value [6] was 0.28. For the same compound, the “FICI of F332 combined with Amoxicillin” value [7] was 0.38, the “FICI of F332 combined with Cefuroxime” value [7] was 0.07 and the “FICI of F332 combined with Cloxacillin” value [7] was 0.19. For the same compound, the “FICI of F332 combined with Meropenem” value [7] was 0.38, the “FICI of F332 combined with Meticillin” value [7] was 0.19 and the “FICI of F332 combined with Amoxicillin” value [8] was 0.27. For the same compound, the “FICI of F332 combined with Cefuroxime” value [8] was 0.08, the “FICI of F332 combined with Cloxacillin” value [8] was 0.13 and the “FICI of F332 combined with Meropenem” value [8] was 1.06. The “FICI of F332 combined with Meticillin” value [8] was 0.09, the “FICI of F332 combined with Amoxicillin” value [9] was 0.06 and the “FICI of F332 combined with Cefuroxime” value [9] was 0.13. For the same compound, the “FICI of F332 combined with Cloxacillin” value [9] was 0.25, the “FICI of F332 combined with Meropenem” value [9] was 4.01 and the “FICI of F332 combined with Meticillin” value [9] was 0.01. For the same compound, the “FICI of F332 combined with Amoxicillin” value [10] was 0.28, the “FICI of F332 combined with Cefuroxime” value [10] was 0.06 and the “FICI of F332 combined with Cloxacillin” value [10] was 0.53. The “FICI of F332 combined with Meropenem” value [10] was 1.25, the “FICI of F332 combined with Meticillin” value [10] was 0.19 and the “FICI of F332 combined with Amoxicillin” value [11] was 0.02. For the same compound, the “FICI of F332 combined with Cefuroxime” value [11] was 1.00, the “FICI of F332 combined with Cloxacillin” value [11] was 1.00 and the “FICI of F332 combined with Meropenem” value [11] was 8.01. For the same compound, the “FICI of F332 combined with Meticillin” value [11] was 0.25, the “FICI of F332 combined with Amoxicillin” value [12] was 1.13 and the “FICI of F332 combined with Cefuroxime” value [12] was 0.27. The “FICI of F332 combined with Cloxacillin” value [12] was 0.13, the “FICI of F332 combined with Meropenem” value [12] was 2.00 and the “FICI of F332 combined with Meticillin” value [12] was 0.27. The “FICI of F332 combined with Amoxicillin” value [13] was 0.51, the “FICI of F332 combined with Cefuroxime” value [13] was 0.25 and the “FICI of F332 combined with Cloxacillin” value [13] was 0.31. The “FICI of F332 combined with Meropenem” value [13] was 4.25, the “FICI of F332 combined with Meticillin” value [13] was 0.38 and the “FICI of F332 combined with Amoxicillin” value [14] was 1.06. The “FICI of F332 combined with Cefuroxime” value [14] was 0.31, the “FICI of F332 combined with Cloxacillin” value [14] was 0.38 and the “FICI of F332 combined with Meropenem” value [14] was 2.13. The “FICI of F332 combined with Meticillin” value [14] was 0.31, the “localization of FtsZ-eGFP in B. subtilis 168 cells” value [15] was “Green fluorescence appeared in multiple parts of B. subtilis cells” and the “FICI of F332 combined with Amoxicillin” value [16] was 0.27. For the same compound, the “FICI of F332 combined with Cefuroxime” value [16] was 0.06, the “FICI of F332 combined with Cloxacillin” value [16] was 0.09 and the “FICI of F332 combined with Meropenem” value [16] was 0.19. For the same compound, the “FICI of F332 combined with Meticillin” value [16] was 0.06.
